Data: US20260262655A1, “INHIBITION OF SEED GERMINATION USING A COMBINATION OF BIOLOGICAL AND CHEMICAL INHIBITORS OF ETHYLENE” (Verdesian Life Sciences U.S., LLC, priority 2023, published 2026)
“And” between values parts separate entries of the source, which are not always exact repeats. Identical values can stand only once.

Assays:
Assay type in all cases: in vivo
Tall Fescue = experiment: Petri dish seed germination test on Tall Fescue; details: Tall Fescue seeds
Procedure: (§1) Place 10 seeds on moistened filter paper in 100 mm petri dishes, with three petri dishes per treatment. Using a pipette, apply 0.01 mL of the solution (water for controls, Pseudomonas for treated) evenly over the top surface of each seed. For the ethylene inhibitor treatment, place a small aluminum weigh boat containing 1 mL inhibitor solution in the petri dish. Ethylene inhibitor solution should be replaced daily. Cover seeds with another sheet of moistened filter paper before closing the petri dish. As needed, moisten the filter paper throughout the experiment with 1 mL of water at a time. Allow plants to germinate and grow for 11 days, removing the filter paper on day 5. Record the number of seeds germinated each day. Image analysis may be used at the end of the experiment to record total root and shoot growth.
(§2) Two species: Tall Fescue and Kentucky Bluegrass
(§3) Three timings of Pseudomonas fluorescens strain D7 application: 0, 3, and 7 days after planting
(§4) Four seed treatments: water (control), Pseudomonas fluorescens strain D7, 1-MCP, Pseudomonas fluorescens strain D7 and 1-MCP combination
(§5) Twelve seeds/petri dish (TF), 40 seeds/petri dish (KB)×3 petri dishes/treatment combination

[1] = test system: Cheatgrass, Bromus tectorum; experiment: Petri dish seed germination test on cheatgrass, with Colby analysis; details: for %_Germ—14DAP: Petri Dish Run 1, germination at day 14; for %_Germ11DAP: Petri Dish Run 2, germination at day 11, repetitions R1-R3; for %_Germ_8DAP: germination at day 8, Run1 R0 and Run2 R1-R3
Procedure: as §1, with “containing lmL” for “containing 1 mL”
One species: Cheatgrass, Bromus tectorum
as §3, §4
Run 1: 12 seeds/dish, 1 petri dish/treatment combo
Run 2: 10 seeds/dish, 3 petri dishes/treatment combo
A Colby Analysis was carried out for the data obtained in Example 2. The first data set is shown in Table 1 below, where cheatgrass (Bromus tectorum) was treated with Pseudomonas fluorescens strain D7 (D7) and 1-methylcyclopropene (1-MCP) alone or in combination at days 0, 3, and 7 of the treatment period. The percentage of germination was then determined at day 14 of the treatment period.
The Colby equation is a standard method for determining the presence of synergy. The Colby equation is as follows:
[formula] • wherein X and Y are the effects of the active agents (e.g., Pseudomonas fluorescens strain D7 (D7) and 1-methylcyclopropene (1-MCP)) applied alone (expressed as % of control).
The standard Colby equation interpretation is: If Observed Value is greater than the Expected Value, synergy exists. However, based on the goal of reducing germination in this study, the appropriate interpretation here is: If the Observed Value is less than the Expected Value, synergy.

Kentucky Bluegrass = experiment: Petri dish seed germination test on Kentucky Bluegrass; details: Kentucky Bluegrass seeds
Procedure: as §1, §2, §3, §4, §5

[2] = Petri Dish Run 2 at Day 11, treatment Day 0, mean of repetitions
[3] = Petri Dish Run 2 at Day 11, treatment Day 3, mean of repetitions
[4] = Petri Dish Run 2 at Day 11, treatment Day 7, mean of repetitions
[5] = treatment Day 0, day 8, mean of Run1 and Run2 repetitions
[6] = treatment Day 3, day 8, mean of Run1 and Run2 repetitions
[7] = treatment Day 7, day 8, mean of Run1 and Run2 repetitions

Row | Molecule | %_Germ—14DAP ([1]; treatment Day 0) [%] | %_Germ—14DAP ([1]; treatment Day 3) [%] | %_Germ—14DAP ([1]; treatment Day 7) [%] | Day 8% Germ Mean [1, 2] [%] | Day 8% Germ Mean [1, 3] [%] | Day 8% Germ Mean [1, 4] [%] | Day 8% Germ Mean [1, 5] [%] | Day 8% Germ Mean [1, 6] [%] | Day 8% Germ Mean [1, 7] [%] | other results
1 | Pseudomonas fluorescens strain D7 | 58.33 | 83.33 | 75.00 | 56.67 | 76.67 | 73.33 | 31.67 | 73.33 | 65.00 | effect on germination (Tall Fescue): did not affect germination; %_Germ11DAP ([1]; treatment Day 0, listed as D7 Alone): 60% and 50%; %_Germ11DAP ([1]; treatment Day 3, listed as D7 Alone): 100% and 60% and 70%; %_Germ11DAP ([1]; treatment Day 7, listed as D7 Alone): 90% and 60% and 70%; influence of application time on germination outcomes ([1]; application 0, 3 or 7 days after planting): early application being the most effective; %_Germ_8DAP ([1]; treatment Day 3): 83.33% and 100.0% and 60.0% and 50.0%; %_Germ_8DAP ([1]; treatment Day 7): 50.00% and 80.0% and 60.0% and 70.0%; effect on germination (Kentucky Bluegrass): did not affect germination
2 | CC1=CC1 [1-MCP, 1-methylcyclopropene, reference compound] | 75.00 | 25.00 | 100.00 | 86.67 | 83.33 | 83.33 | 81.25 | 61.25 | 75.83 | %_Germ11DAP ([1]; treatment Day 0, listed as 1-MCP alone): 80% and 90%; %_Germ11DAP ([1]; treatment Day 3, listed as 1-MCP alone): 80% and 90%; %_Germ11DAP ([1]; treatment Day 7, listed as 1-MCP alone): 100% and 70% and 80%; %_Germ_8DAP ([1]; treatment Day 0, listed as MCP): 75.00% and 80.0% and 90.0%; %_Germ_8DAP ([1]; treatment Day 7, listed as MCP): 83.33% and 90.0% and 60.0% and 70.0%
